{"source": "ChEMBL document CHEMBL5696442", "about": "“Discovery of type II inhibitors of TGFβ-activated kinase 1 (TAK1) and mitogen-activated protein kinase kinase kinase kinase 2 (MAP4K2)” (J Med Chem, 2015)", "key": {"[1]": {"molecular_target": "Calcium/calmodulin-dependent protein kinase type II subunit gamma (Homo sapiens) (UniProt Q13555)", "experiment": "Inhibition of CaMK2g Lys1 labeling site harbouring KTSTQEYAAKIINTKK in human A-375 cells at 5 uM by KiNativ Profiling analysis relative to control", "type": "cell-based"}, "[2]": {"molecular_target": "Proto-oncogene tyrosine-protein kinase Src (Homo sapiens, UniProt P12931)", "sequence (P12931 2-536 limits assumed)": "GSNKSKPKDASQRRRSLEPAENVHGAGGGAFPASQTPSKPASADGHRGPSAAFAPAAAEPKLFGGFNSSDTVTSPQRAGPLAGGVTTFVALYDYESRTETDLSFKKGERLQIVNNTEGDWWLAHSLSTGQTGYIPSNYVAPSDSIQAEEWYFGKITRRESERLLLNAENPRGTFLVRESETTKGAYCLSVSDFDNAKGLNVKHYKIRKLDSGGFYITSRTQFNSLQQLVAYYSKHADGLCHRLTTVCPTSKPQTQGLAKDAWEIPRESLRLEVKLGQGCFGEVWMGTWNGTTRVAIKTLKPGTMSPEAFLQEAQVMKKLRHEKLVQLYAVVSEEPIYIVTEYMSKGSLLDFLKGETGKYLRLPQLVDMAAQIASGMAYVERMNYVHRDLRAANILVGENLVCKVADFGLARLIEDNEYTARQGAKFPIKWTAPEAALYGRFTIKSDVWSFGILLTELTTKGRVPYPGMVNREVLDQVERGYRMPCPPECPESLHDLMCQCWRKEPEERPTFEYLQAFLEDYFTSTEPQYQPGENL", "experiment": "Inhibition of SRC ACT labeling site in human A-375 cells at 0.05 uM by KiNativ Profiling analysis relative to control", "type": "cell-based"}, "[3]": {"molecular_target": "Ephrin type-B receptor 3 (Homo sapiens) (UniProt P54753)", "sequence (P54753 whole entry)": "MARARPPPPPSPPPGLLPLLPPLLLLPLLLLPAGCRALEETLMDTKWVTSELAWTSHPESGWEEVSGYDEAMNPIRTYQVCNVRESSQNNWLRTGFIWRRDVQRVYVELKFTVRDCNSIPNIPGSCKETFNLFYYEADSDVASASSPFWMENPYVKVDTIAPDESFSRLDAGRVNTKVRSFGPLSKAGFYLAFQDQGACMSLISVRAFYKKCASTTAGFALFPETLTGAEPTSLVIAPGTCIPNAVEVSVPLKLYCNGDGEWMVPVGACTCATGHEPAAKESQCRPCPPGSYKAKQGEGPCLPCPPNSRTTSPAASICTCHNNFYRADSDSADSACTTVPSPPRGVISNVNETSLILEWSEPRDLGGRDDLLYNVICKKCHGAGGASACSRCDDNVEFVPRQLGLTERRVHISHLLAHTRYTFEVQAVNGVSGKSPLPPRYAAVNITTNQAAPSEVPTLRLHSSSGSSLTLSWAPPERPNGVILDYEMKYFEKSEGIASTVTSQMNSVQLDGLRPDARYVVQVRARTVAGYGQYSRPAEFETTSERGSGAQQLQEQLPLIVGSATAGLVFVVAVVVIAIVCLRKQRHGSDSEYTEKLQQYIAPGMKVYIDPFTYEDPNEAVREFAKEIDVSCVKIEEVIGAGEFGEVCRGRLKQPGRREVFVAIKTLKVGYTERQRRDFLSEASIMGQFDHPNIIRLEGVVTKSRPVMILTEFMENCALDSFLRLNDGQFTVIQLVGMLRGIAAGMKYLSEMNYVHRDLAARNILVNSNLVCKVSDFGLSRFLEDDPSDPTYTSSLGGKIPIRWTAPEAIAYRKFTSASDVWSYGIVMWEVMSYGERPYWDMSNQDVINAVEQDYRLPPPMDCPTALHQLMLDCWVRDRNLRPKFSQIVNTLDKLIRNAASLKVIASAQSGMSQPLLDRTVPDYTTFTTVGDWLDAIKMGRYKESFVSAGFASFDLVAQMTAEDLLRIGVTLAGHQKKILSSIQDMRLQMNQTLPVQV", "experiment": "Inhibition of EPHB3 (unknown origin) at 1 uM by Ambit Kinomescan binding assay relative to control; values are per cent of control"}, "[4]": {"experiment": "Inhibition of NEK6/7 K2 labeling site harbouring DIKPANVFITATGVVK in human Huh-7 cells at 10 uM by KiNativ Profiling analysis relative to control", "settings": "condition cancer"}, "[5]": {"molecular_target": "Serine/threonine-protein kinase MRCK gamma (Homo sapiens) (UniProt Q6DT37)", "experiment": "Inhibition of DMPK2 (unknown origin) at 10 uM by Ambit Kinomescan binding assay"}, "[6]": {"molecular_target": "Mitogen-activated protein kinase kinase kinase 4 (Homo sapiens) (UniProt Q9Y6R4)", "sequence (Q9Y6R4 whole entry)": "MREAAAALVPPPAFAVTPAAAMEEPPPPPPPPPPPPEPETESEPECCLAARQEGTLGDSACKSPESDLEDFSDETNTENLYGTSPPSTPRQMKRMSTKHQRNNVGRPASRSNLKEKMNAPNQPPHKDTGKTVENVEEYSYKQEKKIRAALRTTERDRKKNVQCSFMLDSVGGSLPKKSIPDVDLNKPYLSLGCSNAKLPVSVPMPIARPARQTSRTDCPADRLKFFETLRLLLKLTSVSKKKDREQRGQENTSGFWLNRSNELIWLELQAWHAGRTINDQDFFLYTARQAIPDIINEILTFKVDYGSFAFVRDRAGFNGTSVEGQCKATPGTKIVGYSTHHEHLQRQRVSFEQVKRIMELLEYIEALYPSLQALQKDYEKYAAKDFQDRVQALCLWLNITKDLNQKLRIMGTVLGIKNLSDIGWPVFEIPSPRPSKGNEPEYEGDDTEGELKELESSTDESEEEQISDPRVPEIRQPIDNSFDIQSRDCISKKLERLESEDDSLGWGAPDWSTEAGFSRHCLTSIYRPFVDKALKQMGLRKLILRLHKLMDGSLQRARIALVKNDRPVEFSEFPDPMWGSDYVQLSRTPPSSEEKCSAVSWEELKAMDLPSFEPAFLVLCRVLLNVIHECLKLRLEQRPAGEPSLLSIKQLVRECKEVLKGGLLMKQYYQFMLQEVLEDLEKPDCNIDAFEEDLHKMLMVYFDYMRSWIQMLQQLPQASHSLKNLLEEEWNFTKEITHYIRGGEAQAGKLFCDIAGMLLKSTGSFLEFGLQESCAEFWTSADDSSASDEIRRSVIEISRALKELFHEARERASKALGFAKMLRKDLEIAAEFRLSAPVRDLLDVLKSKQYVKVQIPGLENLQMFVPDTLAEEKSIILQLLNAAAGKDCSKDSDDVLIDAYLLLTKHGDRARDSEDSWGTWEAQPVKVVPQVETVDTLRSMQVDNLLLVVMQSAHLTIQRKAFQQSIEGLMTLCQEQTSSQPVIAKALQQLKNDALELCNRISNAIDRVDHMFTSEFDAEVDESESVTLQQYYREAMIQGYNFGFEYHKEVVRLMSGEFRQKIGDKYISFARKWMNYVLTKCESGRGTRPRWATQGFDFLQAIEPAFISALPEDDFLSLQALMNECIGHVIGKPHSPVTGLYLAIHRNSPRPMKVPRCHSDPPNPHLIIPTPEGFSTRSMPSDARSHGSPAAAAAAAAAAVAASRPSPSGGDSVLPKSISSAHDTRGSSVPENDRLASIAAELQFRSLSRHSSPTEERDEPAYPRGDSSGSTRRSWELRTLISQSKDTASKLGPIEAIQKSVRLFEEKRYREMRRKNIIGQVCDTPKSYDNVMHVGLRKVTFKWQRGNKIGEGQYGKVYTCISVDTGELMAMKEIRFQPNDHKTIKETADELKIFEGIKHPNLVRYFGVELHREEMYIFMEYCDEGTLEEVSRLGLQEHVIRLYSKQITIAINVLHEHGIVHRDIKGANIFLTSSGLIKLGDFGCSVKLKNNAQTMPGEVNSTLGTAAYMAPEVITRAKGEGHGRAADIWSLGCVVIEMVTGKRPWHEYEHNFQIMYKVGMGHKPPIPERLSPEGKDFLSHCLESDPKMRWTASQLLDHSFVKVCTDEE", "experiment": "Inhibition of MAP3K4 (unknown origin) at 10 uM by Ambit Kinomescan binding assay"}, "[7]": {"molecular_target": "Epidermal growth factor receptor (Homo sapiens) (UniProt P00533)", "experiment": "Inhibition of EGFR Lys1 labeling site in human A-375 cells at 5 uM by KiNativ Profiling analysis relative to control", "type": "cell-based"}, "[8]": {"molecular_target": "Ribosomal protein S6 kinase alpha-3 (Homo sapiens) (UniProt P51812)", "sequence (P51812 whole entry, the tested form may be a part)": "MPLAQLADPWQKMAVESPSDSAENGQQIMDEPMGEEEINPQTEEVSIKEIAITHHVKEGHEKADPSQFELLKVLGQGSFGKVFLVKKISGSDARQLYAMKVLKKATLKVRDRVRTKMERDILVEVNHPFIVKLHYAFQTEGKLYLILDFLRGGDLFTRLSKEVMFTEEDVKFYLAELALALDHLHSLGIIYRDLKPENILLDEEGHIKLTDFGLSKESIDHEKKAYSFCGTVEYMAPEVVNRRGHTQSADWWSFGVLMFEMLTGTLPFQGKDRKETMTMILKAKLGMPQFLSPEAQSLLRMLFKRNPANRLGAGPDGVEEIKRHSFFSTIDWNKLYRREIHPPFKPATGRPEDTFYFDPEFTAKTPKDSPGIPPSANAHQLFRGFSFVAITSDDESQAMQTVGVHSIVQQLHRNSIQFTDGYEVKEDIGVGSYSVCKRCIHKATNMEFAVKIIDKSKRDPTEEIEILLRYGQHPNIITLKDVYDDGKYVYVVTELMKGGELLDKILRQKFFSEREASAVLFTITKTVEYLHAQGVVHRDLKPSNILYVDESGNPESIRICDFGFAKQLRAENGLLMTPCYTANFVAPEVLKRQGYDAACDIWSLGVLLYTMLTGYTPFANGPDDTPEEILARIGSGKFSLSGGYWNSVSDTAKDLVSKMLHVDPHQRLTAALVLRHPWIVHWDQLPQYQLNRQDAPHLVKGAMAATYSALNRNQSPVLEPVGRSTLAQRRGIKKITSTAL", "experiment": "Inhibition of RSK2 Domain 2 K1 labeling site in human Huh-7 cells at 1 uM by KiNativ Profiling analysis relative to control", "type": "cell-based"}, "[9]": {"molecular_target": "Serine/threonine-protein kinase tousled-like 2 (Homo sapiens) (UniProt Q86UE8)", "experiment": "Inhibition of TLK2 (unknown origin) at 10 uM by Ambit Kinomescan binding assay"}, "[10]": {"molecular_target": "Cyclin-dependent kinase 15 (Homo sapiens) (UniProt Q96Q40)", "sequence (Q96Q40 whole entry)": "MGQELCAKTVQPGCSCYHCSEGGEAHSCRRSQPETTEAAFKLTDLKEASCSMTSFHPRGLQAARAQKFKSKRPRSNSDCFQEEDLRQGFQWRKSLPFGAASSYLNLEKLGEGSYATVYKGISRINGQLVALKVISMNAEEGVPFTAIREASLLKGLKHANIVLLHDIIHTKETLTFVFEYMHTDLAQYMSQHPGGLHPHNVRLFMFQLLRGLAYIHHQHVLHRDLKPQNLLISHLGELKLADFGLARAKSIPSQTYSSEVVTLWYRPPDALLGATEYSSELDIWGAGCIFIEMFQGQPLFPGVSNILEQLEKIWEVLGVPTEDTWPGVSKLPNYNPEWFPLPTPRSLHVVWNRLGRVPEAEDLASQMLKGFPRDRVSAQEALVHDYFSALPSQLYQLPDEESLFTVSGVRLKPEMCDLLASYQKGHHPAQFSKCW", "experiment": "Inhibition of PFTAIRE2 (unknown origin) at 10 uM by Ambit Kinomescan binding assay relative to control"}, "[11]": {"molecular_target": "LIM domain kinase 2 (Homo sapiens) (UniProt P53671)", "sequence (P53671 whole entry, looked up, the tested form may be a part)": "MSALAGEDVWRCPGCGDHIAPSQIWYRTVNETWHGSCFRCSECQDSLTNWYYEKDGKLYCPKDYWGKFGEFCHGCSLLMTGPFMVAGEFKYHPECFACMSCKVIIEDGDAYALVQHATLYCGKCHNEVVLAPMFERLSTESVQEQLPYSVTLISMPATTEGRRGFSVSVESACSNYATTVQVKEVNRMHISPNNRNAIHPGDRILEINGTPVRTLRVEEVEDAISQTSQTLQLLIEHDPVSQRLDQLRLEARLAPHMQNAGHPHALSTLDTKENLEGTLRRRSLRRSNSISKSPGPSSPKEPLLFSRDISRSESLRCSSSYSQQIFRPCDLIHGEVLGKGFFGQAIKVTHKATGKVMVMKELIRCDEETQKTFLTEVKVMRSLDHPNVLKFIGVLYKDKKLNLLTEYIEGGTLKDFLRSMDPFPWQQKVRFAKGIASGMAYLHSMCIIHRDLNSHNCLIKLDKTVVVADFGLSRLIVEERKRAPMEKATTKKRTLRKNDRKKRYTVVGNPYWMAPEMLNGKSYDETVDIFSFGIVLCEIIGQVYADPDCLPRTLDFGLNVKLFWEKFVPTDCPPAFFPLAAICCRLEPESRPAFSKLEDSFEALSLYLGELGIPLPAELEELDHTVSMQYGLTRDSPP", "experiment": "Inhibition of LIMK2 (unknown origin) at 10 uM by Ambit Kinomescan binding assay"}, "[12]": {"molecular_target": "Tyrosine-protein kinase SYK (Homo sapiens) (UniProt P43405)", "experiment": "Inhibition of SYK (unknown origin) at 10 uM by Ambit Kinomescan binding assay relative to control; values are per cent of control"}, "[13]": {"molecular_target": "Serine/threonine-protein kinase Nek4 (Homo sapiens) (UniProt P51957)", "experiment": "Inhibition of NEK4 Lys2 labeling site in human A-375 cells at 0.05 uM by KiNativ Profiling analysis relative to control", "type": "cell-based"}, "[14]": {"molecular_target": "Serine/threonine-protein kinase Nek7 (Homo sapiens) (UniProt Q8TDX7)", "experiment": "Inhibition of NEK7 ACT labeling site in human A-375 cells at 0.5 uM by KiNativ Profiling analysis relative to control", "type": "cell-based"}, "[15]": {"molecular_target": "T1, Scaffold protein ILK (Homo sapiens) (UniProt Q13418)", "T1 sequence (whole entry)": "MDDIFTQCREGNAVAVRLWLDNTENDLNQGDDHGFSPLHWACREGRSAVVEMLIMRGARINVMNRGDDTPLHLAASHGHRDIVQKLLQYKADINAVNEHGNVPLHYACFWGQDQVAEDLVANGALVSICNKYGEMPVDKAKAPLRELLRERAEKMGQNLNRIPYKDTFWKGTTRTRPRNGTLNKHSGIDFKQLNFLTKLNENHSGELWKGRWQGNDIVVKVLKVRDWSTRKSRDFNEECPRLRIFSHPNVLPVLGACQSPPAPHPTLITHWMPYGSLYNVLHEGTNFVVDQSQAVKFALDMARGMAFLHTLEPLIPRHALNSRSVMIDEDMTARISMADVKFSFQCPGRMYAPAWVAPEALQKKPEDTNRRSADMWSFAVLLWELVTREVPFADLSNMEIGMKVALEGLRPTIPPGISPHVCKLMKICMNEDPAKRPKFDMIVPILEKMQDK", "experiment": "Inhibition of ILK Lys1 labeling site in human Huh-7 cell lysate at 1 uM by KiNativ Profiling analysis relative to control", "type": "subcellular"}, "[16]": {"experiment": "Inhibition of p70S6K Lys2 labeling site in human Huh-7 cells at 1 uM by KiNativ Profiling analysis relative to control", "settings": "condition cancer"}, "[17]": {"molecular_target": "T2, Serine/threonine-protein kinase Chk1 (Homo sapiens) (UniProt O14757)", "T2 sequence (whole entry)": "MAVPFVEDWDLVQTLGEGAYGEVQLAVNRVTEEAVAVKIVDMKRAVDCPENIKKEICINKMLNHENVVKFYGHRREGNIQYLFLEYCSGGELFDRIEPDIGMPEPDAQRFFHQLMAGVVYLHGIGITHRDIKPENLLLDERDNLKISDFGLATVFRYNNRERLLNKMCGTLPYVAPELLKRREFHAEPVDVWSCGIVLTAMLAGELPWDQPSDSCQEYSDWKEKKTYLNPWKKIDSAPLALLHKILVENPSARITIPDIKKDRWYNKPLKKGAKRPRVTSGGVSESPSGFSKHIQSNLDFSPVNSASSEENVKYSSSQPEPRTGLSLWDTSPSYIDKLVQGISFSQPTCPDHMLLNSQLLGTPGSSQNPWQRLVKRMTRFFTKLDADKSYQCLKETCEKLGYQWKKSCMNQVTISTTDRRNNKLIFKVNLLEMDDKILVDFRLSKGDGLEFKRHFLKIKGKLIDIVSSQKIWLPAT", "experiment": "Inhibition of CHK1 in human Huh-7 cell lysate at 1 uM by KiNativ Profiling analysis relative to control", "type": "subcellular"}, "[18]": {"molecular_target": "Phosphatidylinositol 4-phosphate 3-kinase C2 domain-containing subunit beta (Homo sapiens) (UniProt O00750)", "experiment": "Inhibition of PIK3C2B ATP labeling site in human Huh-7 cell lysate at 1 uM by KiNativ Profiling analysis relative to control", "type": "subcellular"}}, "note": "The source made the active and inactive calls. No cut-off for these calls is given here.", "data": [{"smiles": "CCN1CCN(Cc2ccc(NC(=O)c3ccc(C)c(/C=C/c4cnc5[nH]ccc5c4OC)c3)cc2C(F)(F)F)CC1", "values": [{"measurement": "inhibition", "setting": "[1]", "result": 11.4, "unit": "%"}, {"measurement": "inhibition", "setting": "[2]", "result": 38.9, "unit": "%"}, {"measurement": "residual activity", "setting": "[3]", "result": 63, "unit": "%"}]}, {"smiles": "CCN1CCN(Cc2ccc(NC(=O)c3ccc(C)c(Oc4ccnc5[nH]ccc45)c3)cc2C(F)(F)F)CC1", "values": [{"measurement": "inhibition at 10 µM", "setting": "[4]", "result": 2.8, "unit": "%"}, {"measurement": "inhibition", "setting": "[5]", "result": "inactive"}, {"measurement": "inhibition", "setting": "[6]", "result": "inactive"}, {"measurement": "inhibition", "setting": "[7]", "result": -1.5, "unit": "%"}, {"measurement": "inhibition", "setting": "[8]", "result": "inactive"}, {"measurement": "inhibition", "setting": "[9]", "result": "inactive"}, {"measurement": "inhibition", "setting": "[10]", "result": 6, "unit": "%"}, {"measurement": "inhibition", "setting": "[11]", "result": "inactive"}, {"measurement": "residual activity", "setting": "[12]", "result": 6.2, "unit": "%"}, {"measurement": "inhibition", "setting": "[13]", "result": 15.2, "unit": "%"}, {"measurement": "inhibition", "setting": "[14]", "result": 1.6, "unit": "%"}]}, {"smiles": "CNc1cc(Oc2cc(C(=O)Nc3cc(N4CCN(C)CC4)cc(C(F)(F)F)c3)ccc2C)ncn1", "values": [{"measurement": "inhibition", "setting": "[15]", "result": -6.9, "unit": "%"}, {"measurement": "inhibition at 1 µM", "setting": "[16]", "result": -110, "unit": "%"}, {"measurement": "inhibition", "setting": "[17]", "result": 0.5, "unit": "%"}, {"measurement": "inhibition", "setting": "[18]", "result": 9, "unit": "%"}]}]}
